PubChem BioAssay AID248 (DTP/NCI, 2004)
Inconclusive results and toxic doses are left out. Cut-off read from the data, not from the text of the source: active = T/C of 150% or more; inactive = T/C below 125%.

System: L1210 leukemia ip in BDF1 mice, survival T/C
Assay: NCI In Vivo Anticancer Drug Screen. Data for tumor model L1210 Leukemia (intraperitoneal) in B6D2F1 (BDF1) mice
Details: endpoint: mean survival time, higher = longer survival
In short: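 Transplantable tumor model; survival measured in treated vs vehicle control mice. Value = treated/control.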

[1] = dose: 25.0 mg/kg/injection, schedule: Q04DX002 (ip), vehicle: Klucel (hydroxypropylcellulose) (HPC)
[2] = dose: 50.0 mg/kg/injection, schedule: Q04DX002 (ip), vehicle: Klucel (hydroxypropylcellulose) (HPC)
[3] = dose: 100.0 mg/kg/injection, schedule: Q04DX002 (ip), vehicle: Klucel (hydroxypropylcellulose) (HPC)
[4] = dose: 200.0 mg/kg/injection, schedule: Q04DX002 (ip), vehicle: Klucel (hydroxypropylcellulose) (HPC)
[5] = dose: 400.0 mg/kg/injection, schedule: Q04DX002 (ip), vehicle: Klucel (hydroxypropylcellulose) (HPC)
[6] = dose: 100.0 mg/kg/injection, schedule: Q01DX001 (ip), vehicle: saline
[7] = dose: 200.0 mg/kg/injection, schedule: Q01DX001 (ip), vehicle: saline
[8] = dose: 50.0 mg/kg/injection, schedule: Q01DX001 (ip), vehicle: saline
[9] = dose: 400.0 mg/kg/injection, schedule: Q01DX001 (ip), vehicle: saline
[10] = dose: 100.0 mg/kg/injection, schedule: Q04DX003 (ip), vehicle: Klucel (hydroxypropylcellulose) (HPC)
[11] = dose: 100.0 mg/kg/injection, schedule: Q01DX009 (ip), vehicle: Klucel (hydroxypropylcellulose) (HPC)
[12] = dose: 200.0 mg/kg/injection, schedule: Q01DX009 (ip), vehicle: Klucel (hydroxypropylcellulose) (HPC)

Measured: T/C

Cc1cccc(C)c1OC(=O)Nc1cccc2ccccc12
inactive: dose: 12.5 mg/kg/injection, schedule: Q04DX002 (ip), vehicle: Klucel (hydroxypropylcellulose) (HPC) 105 % of control | [1] 118 % of control | [2] 112 % of control | [3] 95 % of control | [4] 97 % of control | [5] 89 % of control

CCCCNc1cc(Nc2ccc(Br)cc2)nc(N)n1
inactive: [6] 102 % of control | [7] 98 % of control

CCOP(=O)(OCC)C(O)c1cnc(SC)nc1N (configuration not stated)
inactive: dose: 100.0 mg/kg/injection, schedule: Q01DX009 (ip), vehicle: saline 104 % of control | dose: 100.0 mg/kg/injection, schedule: Q04DX003 (ip), vehicle: saline 102 % of control | dose: 200.0 mg/kg/injection, schedule: Q01DX009 (ip), vehicle: saline 100 % of control | dose: 200.0 mg/kg/injection, schedule: Q04DX003 (ip), vehicle: saline 100 % of control | dose: 400.0 mg/kg/injection, schedule: Q01DX009 (ip), vehicle: saline 105 % of control | dose: 400.0 mg/kg/injection, schedule: Q04DX003 (ip), vehicle: saline 98 % of control

O=C(O)/C(=C\c1cccc(Br)c1)c1ccccc1
inactive: dose: 75.0 mg/kg/injection, schedule: Q04DX003 (ip), vehicle: Klucel (hydroxypropylcellulose) (HPC) 104 % of control | dose: 100.0 mg/kg/injection, schedule: Q01DX001 (ip), vehicle: Klucel (hydroxypropylcellulose) (HPC) 105 % of control | dose: 150.0 mg/kg/injection, schedule: Q04DX003 (ip), vehicle: Klucel (hydroxypropylcellulose) (HPC) 96 % of control | dose: 200.0 mg/kg/injection, schedule: Q01DX001 (ip), vehicle: Klucel (hydroxypropylcellulose) (HPC) 97 % of control | dose: 300.0 mg/kg/injection, schedule: Q04DX003 (ip), vehicle: Klucel (hydroxypropylcellulose) (HPC) 105 % of control | dose: 400.0 mg/kg/injection, schedule: Q01DX001 (ip), vehicle: Klucel (hydroxypropylcellulose) (HPC) 97 % of control

N=C1SCc2ccc3ccccc3c21
inactive: dose: 100.0 mg/kg/injection, schedule: Q01DX001 (ip), vehicle: other 92 % of control | dose: 200.0 mg/kg/injection, schedule: Q01DX001 (ip), vehicle: other 108 % of control | dose: 400.0 mg/kg/injection, schedule: Q01DX001 (ip), vehicle: other 97 % of control

O=C1c2cccc3cc([N+](=O)[O-])cc(c23)C(=O)N1CC1CCCO1 (configuration not stated)
inactive: dose: 100.0 mg/kg/injection, schedule: Q04DX003 (ip), vehicle: carboxymethylcellulose (CMC) 94 % of control | dose: 200.0 mg/kg/injection, schedule: Q04DX003 (ip), vehicle: carboxymethylcellulose (CMC) 96 % of control | dose: 400.0 mg/kg/injection, schedule: Q04DX003 (ip), vehicle: carboxymethylcellulose (CMC) 107 % of control

CCOC1(O)C(=O)c2ccccc2OC1(OCC)c1ccccc1 (configuration not stated)
inactive: [8] 93 % of control | [6] 96 % of control | [7] 96 % of control | [9] 98 % of control

CC(=O)Nc1ccc(Cc2ccc3[nH]c(=O)cc(C)c3c2)cc1
inactive: dose: 100.0 mg/kg/injection, schedule: Q01DX001 (ip), vehicle: carboxymethylcellulose (CMC) 96 % of control | dose: 200.0 mg/kg/injection, schedule: Q01DX001 (ip), vehicle: carboxymethylcellulose (CMC) 98 % of control | dose: 400.0 mg/kg/injection, schedule: Q01DX001 (ip), vehicle: carboxymethylcellulose (CMC) 101 % of control

O=C1OCC2C1C1CCC2C1(Cl)Cl (configuration not stated)
inactive: dose: 75.0 mg/kg/injection, schedule: Q01DX001 (ip), vehicle: other 98 % of control

Cc1cc(C)c(C2CC3CCC2C3)cc1N (configuration not stated)
inactive: [1] 100 % of control | [2] 100 % of control | [3] 100 % of control | [10] 90 % of control | dose: 200.0 mg/kg/injection, schedule: Q04DX002 (ip), vehicle: saline 96 % of control

OCc1nc2cc3nc(CO)[nH]c3cc2[nH]1
inactive: dose: 75.0 mg/kg/injection, schedule: Q01DX001 (ip), vehicle: carboxymethylcellulose (CMC) 98 % of control | dose: 150.0 mg/kg/injection, schedule: Q01DX001 (ip), vehicle: carboxymethylcellulose (CMC) 101 % of control

CCCCS(=O)(=O)CCCCCCl
inactive: [6] 105 % of control | [7] 104 % of control | [9] 104 % of control

Cc1nc(N)[nH]c(=O)c1Br
inactive: [11] 97 % of control | [10] 93 % of control | [12] 100 % of control | dose: 200.0 mg/kg/injection, schedule: Q04DX003 (ip), vehicle: Klucel (hydroxypropylcellulose) (HPC) 98 % of control | dose: 400.0 mg/kg/injection, schedule: Q04DX003 (ip), vehicle: Klucel (hydroxypropylcellulose) (HPC) 98 % of control

Nc1cccc(C(=O)NO)c1
inactive: [6] 98 % of control | [7] 103 % of control | [9] 97 % of control

O=c1c2ccccc2nc(-c2ccccc2)n1/N=C/c1ccccc1O
inactive: [11] 103 % of control | [12] 103 % of control | dose: 400.0 mg/kg/injection, schedule: Q01DX009 (ip), vehicle: Klucel (hydroxypropylcellulose) (HPC) 100 % of control

Cc1sc2ccc3ccccc3c2[n+]1C
inactive: dose: 50.0 mg/kg/injection, schedule: Q04DX003 (ip), vehicle: Klucel (hydroxypropylcellulose) (HPC) 105 % of control | dose: 75.0 mg/kg/injection, schedule: Q01DX001 (ip), vehicle: saline 103 % of control | [10] 109 % of control | dose: 150.0 mg/kg/injection, schedule: Q01DX001 (ip), vehicle: saline 111 % of control

O=C(Nc1ccc2c(c1)OCO2)O/N=C\c1cccnc1
inactive: dose: 12.5 mg/kg/injection, schedule: Q01DX009 (ip), vehicle: saline with Tween-80 97 % of control | dose: 25.0 mg/kg/injection, schedule: Q01DX009 (ip), vehicle: saline with Tween-80 105 % of control | dose: 50.0 mg/kg/injection, schedule: Q01DX009 (ip), vehicle: saline with Tween-80 100 % of control | dose: 100.0 mg/kg/injection, schedule: Q01DX009 (ip), vehicle: saline with Tween-80 86 % of control | dose: 100.0 mg/kg/injection, schedule: Q04DX003 (ip), vehicle: saline with Tween-80 100 % of control | dose: 200.0 mg/kg/injection, schedule: Q01DX009 (ip), vehicle: saline with Tween-80 91 % of control | dose: 200.0 mg/kg/injection, schedule: Q04DX003 (ip), vehicle: saline with Tween-80 113 % of control | dose: 400.0 mg/kg/injection, schedule: Q04DX003 (ip), vehicle: saline with Tween-80 111 % of control

COc1ccc(-c2cc3c(OC)ccc(OC)c3[nH]2)cc1
inactive: [3] 93 % of control | [4] 102 % of control | [5] 93 % of control

O=S(CS(=O)c1ccccc1)c1ccccc1 (configuration not stated)
inactive: [6] 100 % of control | [7] 94 % of control | [9] 100 % of control

COc1c(Cl)c(Cl)c(Cl)c(Cl)c1NC(C)=O
inactive: dose: 100.0 mg/kg/injection, schedule: Q01DX001 (ip), vehicle: acetone 102 % of control | dose: 200.0 mg/kg/injection, schedule: Q01DX001 (ip), vehicle: acetone 100 % of control | dose: 400.0 mg/kg/injection, schedule: Q01DX001 (ip), vehicle: acetone 94 % of control

Cc1cccc(-c2nnc(-c3cccc(C)n3)o2)n1
inactive: dose: 50.0 mg/kg/injection, schedule: Q04DX002 (ip), vehicle: saline with Tween-80 92 % of control | dose: 100.0 mg/kg/injection, schedule: Q04DX002 (ip), vehicle: saline with Tween-80 95 % of control | dose: 200.0 mg/kg/injection, schedule: Q04DX002 (ip), vehicle: saline with Tween-80 92 % of control | dose: 400.0 mg/kg/injection, schedule: Q04DX002 (ip), vehicle: saline with Tween-80 87 % of control

O=C(CN1C(=O)c2ccccc2C1=O)NCC(=O)Nc1ccccc1
inactive: [8] 93 % of control | [6] 98 % of control | [7] 104 % of control | [9] 93 % of control

COc1cc([N+](C)(C)C)nc(OC)n1
inactive: dose: 22.0 mg/kg/injection, schedule: Q01DX Z (ip), vehicle: saline 98 % of control | dose: 34.0 mg/kg/injection, schedule: Q01DX Z (ip), vehicle: saline 110 % of control | dose: 50.0 mg/kg/injection, schedule: Q01DX Z (ip), vehicle: saline 104 % of control
